What was measured:
Format in all cases: in vivo
Aphis gossypii [1] = assay: Test Example 1: pesticidal effect against Aphis gossypii (Part 1), cucumber leaf disk, death rate of first-instar larvae and Colby theoretical value; conditions: other insecticide 0.078 ppm alone (compound 261 0 ppm); for Theoretical value calculated by Colby's formula: Table 19; for Death rate of Aphis gossypii by single active ingredient or admixture: cucumber leaf disk, first-instar larvae, 3 days
Source text: (§1) A leaf disk having a diameter of 2.0 cmφ was cut out from a cucumber grown in a pot and was placed in a 5.0 cm-Schale. Test admixture solutions, prepared by diluting the composition of the present invention with a 50% aqueous acetone solution (0.05% Tween 20 added) to predetermined concentrations specified in Table 18, test single active ingredient solutions in which only compound 261 had been dissolved without mixing other insecticides, or test single active ingredient solutions in which only other insecticides had been dissolved without mixing any pyripyropene derivative were spread over the cucumber leaf disk. The leaf disk was then air dried. Ten larvae at the first instar born of Aphis gossypii were released in the Schale. Thereafter, the Schale was lidded and was allowed to stand in a humidistat chamber (light period 16 hr-dark period 8 hr) (25° C.). […] Death rate (%)={number of dead larvae/(number of survived larvae+number of dead larvae)}×100
(§2) Colby's formula: Theoretical value (%)=100−(A×B)/100
wherein A: 100—(death rate when treatment was performed only with compound 261); and • B: 100—(death rate when treatment was performed only with each of flonicamid, acetamiprid, fipronil, imidacloprid)
(§3) When the pesticidal effect (Table 18) of the composition of the present invention in, an admixture form against Aphis gossypii exceeded the theoretical value calculated by the Colby's formula shown in Table 19, the admixture was determined to have a synergistic effect.

Plutella xylostella = assay: Test Example 3: pesticidal effect against Plutella xylostella, cabbage leaf disk, death rate of second-instar larvae and Colby theoretical value; conditions: other insecticide 0.156 ppm alone (compound 261 0 ppm)
Source text: A leaf disk having a diameter of 5.0 cmφ was cut out from a cabbage grown in a pot and was placed in a plastic cup. Test admixture solutions, prepared by diluting the composition of the present invention with a 50% aqueous acetone solution (0.05% Tween 20 added) to predetermined concentrations specified in Table 22, test single active ingredient solutions in which only compound 261 had been dissolved without mixing other insecticides, or test single active ingredient solutions in which only other insecticides had been dissolved without mixing any pyripyropene derivative were spread over the cabbage leaf disk. The leaf disk was then air dried. Five larvae at the second instar born of Plutella xylostella were released in the cup. Thereafter, the cup was lidded and was allowed to stand in a humidistat chamber (light period 16 hr-dark period 8 hr) (25° C.). […] Death rate (%)={number of dead larvae/(number of survived larvae+number of dead larvae)}×100
Colby's formula: Theoretical value (%)=100−(A×B)/100 […]
When the pesticidal effect (Table 22) of the composition of the present invention in an admixture form against Plutella xylostella exceeded the theoretical value calculated by the Colby's formula shown in Table 23, the admixture was determined to have a synergistic effect.

Aphis gossypii [2] = assay: Test Example 2: pesticidal effect against Aphis gossypii (Part 2), same test as Test Example 1 with other insecticides, death rate and Colby theoretical value; conditions: other insecticide 0.078 ppm alone (compound 261 0 ppm); for Theoretical value calculated by Colby's formula: Table 21; for Pesticidal effect against Aphis gossypii, death rate: cucumber leaf disk, 3 days
Source text: as §1, §2, §3
The same test as in Test Example 1 was performed, except that the other insecticides were changed to those specified in Table 20.

| Structure (SMILES) | Theoretical value calculated by Colby's formula (Aphis gossypii [1]) | Death rate of Aphis gossypii by single active ingredient or admixture (Aphis gossypii [1]) | Theoretical value calculated by Colby's formula (Aphis gossypii [2]) | Pesticidal effect against Aphis gossypii, death rate (Aphis gossypii [2]) | other results |
| --- | --- | --- | --- | --- | --- |
| C/C(=N\C#N)N(C)Cc1ccc(Cl)nc1 [acetamiprid] | 58% | 58% |  |  |  |
| CCOCn1c(-c2ccc(Cl)cc2)c(C#N)c(Br)c1C(F)(F)F [chlorfenapyr] |  |  |  |  | Theoretical value calculated by Colby's formula (Plutella xylostella; Table 23): 0%; Pesticidal effect against Plutella xylostella, deathrate (Plutella xylostella; cabbage leaf disk, second-instar larvae, 3 days): 0% |
| CN/C(=N\[N+](=O)[O-])NCc1cnc(Cl)s1 [clothianidin] |  |  | 79% | 79% |  |
| CN/C(=N/CC1CCOC1)N[N+](=O)[O-] (stereo not shown) [dinotefuran] |  |  | 40% | 40% |  |
| N#Cc1nn(-c2c(Cl)cc(C(F)(F)F)cc2Cl)c(N)c1[S+]([O-])C(F)(F)F (stereo not shown) [fipronil] | 0% | 0% |  |  |  |
| N#CCNC(=O)c1cnccc1C(F)(F)F [flonicamid] | 10% | 10% |  |  |  |
| O=[N+]([O-])NC1=NCCN1Cc1ccc(Cl)nc1 [imidacloprid] | 20% | 20% |  |  |  |
| CN1COCN(Cc2cnc(Cl)s2)/C1=N\[N+](=O)[O-] [thiamethoxam] |  |  | 65% | 65% |  |

Reference: patent US9675075B2, “Pest control composition” (MEIJI SEIKA PHARMA CO., LTD., priority 2007, dated 2017)
